Test results taken from patent US20060089375A1, “Pyrazolo[3,4-b] pyridine compounds, and their use as phosphodiesterase inhibitors” (priority 2002, published 2006).

What follows are molecules tested against T1, PDE4B (human recombinant) (Homo sapiens, UniProt Q07343) (assay: Inhibition of PDE4B activity: radioactive SPA or IMAP Fluorescence Polarisation (FP) assay). Conditions: PDE4B inhibitory activity, one reading or average of ca. 2-6 readings, read-out: PDE4B pIC50 (± about 0.5) (converted).
T1 construct: made in house
T1 sequence (Q07343 1-564 isoform Q07343-2): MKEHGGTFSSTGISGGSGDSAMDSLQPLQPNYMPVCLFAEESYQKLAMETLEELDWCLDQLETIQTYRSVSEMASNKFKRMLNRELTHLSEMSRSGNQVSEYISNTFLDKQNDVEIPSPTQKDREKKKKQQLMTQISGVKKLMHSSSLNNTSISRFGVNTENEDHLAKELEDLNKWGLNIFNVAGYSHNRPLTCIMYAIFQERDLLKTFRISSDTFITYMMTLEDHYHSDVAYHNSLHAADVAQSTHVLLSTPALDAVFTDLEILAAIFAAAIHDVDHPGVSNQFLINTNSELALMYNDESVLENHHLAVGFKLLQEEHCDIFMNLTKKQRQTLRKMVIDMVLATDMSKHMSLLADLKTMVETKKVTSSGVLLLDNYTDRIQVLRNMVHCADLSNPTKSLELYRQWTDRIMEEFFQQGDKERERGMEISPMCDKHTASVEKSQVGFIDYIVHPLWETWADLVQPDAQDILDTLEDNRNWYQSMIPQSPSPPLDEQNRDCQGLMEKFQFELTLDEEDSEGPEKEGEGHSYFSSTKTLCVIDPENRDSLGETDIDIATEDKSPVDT
Type: biochemical
Source text: Human recombinant PDE4B, in particular the 2B splice variant thereof (HSPDE4B2B), is disclosed in WO 94/20079 and also M. M. McLaughlin et al., “A low Km, rolipram-sensitive, cAMP-specific phosphodiesterase from human brain: cloning and expression of cDNA, biochemical characterisation of recombinant protein, and tissue distribution of mRNA”, J. Biol. Chem., 1993, 268, 6470-6476. For example, in Example 1 of WO 94/20079, human recombinant PDE4B is described as being expressed in the PDE-deficient yeast Saccharomyces cerevisiae strain GL62, e.g. after induction by addition of 150 uM CuSO4, and 100,000×g supernatant fractions of yeast cell lysates are described for use in the harvesting of PDE4B enzyme.
The ability of compounds to inhibit catalytic activity at PDE4B or 4D (human recombinant), PDE3 (from bovine aorta), PDE5 (human recombinant) or PDE6 (from bovine retina) was determined by Scintillation Proximity Assay (SPA) in 96-well format. Test compounds (preferably as a solution in DMSO, e.g. 0.5 to 1 microlitre (ul) volume) were preincubated at ambient temperature (room temperature, e.g. 19-23° C.) in Wallac Isoplates (code 1450-514) with PDE enzyme in 50 mM Tris-HCl buffer pH 7.5, 8.3 mM MgCl2, 1.7 mM EGTA, 0.05% (w/v) bovine serum albumin for 10-30 minutes (usually 30 minutes). The enzyme concentration was adjusted so that no more than 20% hydrolysis of the substrate defined below occurred in control wells without compound, during the incubation. For the PDE3, PDE4B and PDE4D assays, [5′,8-^3H]Adenosine 3′,5′-cyclic phosphate (Amersham Pharmacia Biotech, code TRK.559; or Amersham Biosciences UK Ltd, Pollards Wood, Chalfont St Giles, Buckinghamshire HP8 4SP, UK) was added to give 0.05 uCi per well and ˜10 nM final concentration. For the PDE5 and PDE6 assays, [8-^3H]Guanosine 3′,5′-cyclic phosphate (Amersham Pharmacia Biotech, code TRK.392) was added to give 0.05 uCi per well and ˜36 nM final concentration. Plates, e.g. containing approx. 100 ul volume of assay mixture, were mixed on an orbital shaker for 5 minutes and incubated at ambient temperature for 1 hour. Phosphodiesterase SPA beads (Amersham Pharmacia Biotech, code RPNQ 0150) were added ([…] per well) to terminate the assay. Plates were sealed and shaken and allowed to stand at ambient temperature for 35 minutes to 1 hour (preferably 35 minutes) to allow the beads to settle. Bound radioactive product was measured using a WALLAC TRILUX 1450 Microbeta scintillation counter. For inhibition curves, 10 concentrations (1.5 nM-30 uM) of each compound were assayed. Curves were analysed using ActivityBase and XLfit (ID. Business Solutions Limited, 2 Ocean Court, Surrey Research Park, Guildford, Surrey GU2 7QB, United Kindgom) Results were expressed as pIC50 values.
The ability of compounds to inhibit catalytic activity at PDE4B (human recombinant) or PDE4D (human recombinant) was determined by IMAP Fluorescence Polarisation ([…]) assay (IMAP Explorer kit, available from Molecular Devices Corporation, Sunnydale, Calif., USA; Molecular Devices code: R^8062) in 384-well format. The IMAP FP assay is able to measure PDE activity in an homogenous, non-radioactive assay format. The FP assay uses the ability of immobilised trivalent metal cations, coated onto nanoparticles (tiny beads), to bind the phosphate group of Fl-AMP that is produced on the hydrolysis of fluorescein-labelled (Fl) cyclic adenosine mono-phosphate (Fl-cAMP) to the non-cyclic Fl-AMP form. […] Binding of Fl-AMP product to the beads (coated with the immobilised trivalent cations) slows the rotation of the bound Fl-AMP and leads to an increase in the fluorescence polarisation ratio of parallel to perpendicular light. Inhibition of the PDE reduces/inhibits this signal increase. […]

Compound	IC50 [nM]
CCn1ncc2c(NC3CCC(=O)CC3)c(C(=O)NCc3ccc(C(F)(F)F)cc3)cnc21 [Example 267, 1-Ethyl-4-[(4-oxocyclohexyl)amino]-N-{[4-(trifluoromethyl)phenyl]methyl}-1H-pyrazolo[3,4-b]pyridine-5-carboxamide]	0.1 to 6.31
CCn1ncc2c(NC3CCC(=O)CC3)c(C(=O)NC3Cc4ccccc4C3)cnc21 [Example 271, N-(2,3-Dihydro-1H-inden-2-yl)-1-ethyl-4-[(4-oxocyclohexyl)amino]-1H-pyrazolo[3,4-b]pyridine-5-carboxamide]	0.1 to 6.31
CCn1ncc2c(NC3CCCCC3)c(C(=O)NCc3ccc(OC)cc3)cnc21 [Example 431, 4-(Cyclohexylamino)-1-ethyl-N-{[4-(methyloxy)phenyl]methyl}-1H-pyrazolo[3,4-b]pyridine-5-carboxamide]	0.1 to 6.31
CCn1ncc2c(NC3CCOCC3)c(C(=O)NCc3ccc(C)c(Cl)c3)cnc21 [Example 493, N-[(3-Chloro-4-methylphenyl)methyl]-1-ethyl-4-(tetrahydro-2H-pyran-4-ylamino)-1H-pyrazolo[3,4-b]pyridine-5-carboxamide]	0.1 to 6.31
CCn1ncc2c(NC3CCOCC3)c(C(=O)NCc3ccc(Cl)cc3C)cnc21 [Example 494, N-[(4-Chloro-2-methylphenyl)methyl]-1-ethyl-4-(tetrahydro-2H-pyran-4-ylamino)-1H-pyrazolo[3,4-b]pyridine-5-carboxamide]	0.1 to 6.31
CCn1ncc2c(NC3CCOCC3)c(C(=O)NCc3ccccc3OC(F)F)cnc21 [Example 495, N-({2-[(Difluoromethyl)oxy]phenyl}methyl)-1-ethyl-4-(tetrahydro-2H-pyran-4-ylamino)-1H-pyrazolo[3,4-b]pyridine-5-carboxamide]	0.1 to 6.31
CCn1ncc2c(NC3CCOCC3)c(C(=O)NCc3cccc(OC(F)F)c3)cnc21 [Example 498, N-({3-[(Difluoromethyl)oxy]phenyl}methyl)-1-ethyl-4-(tetrahydro-2H-pyran-4-ylamino)-1H-pyrazolo[3,4-b]pyridine-5-carboxamide]	0.1 to 6.31
CCn1ncc2c(NC3CCOCC3)c(C(=O)NCc3ccc(C)cc3)cnc21 [Example 528, 1-Ethyl-N-[(4-methylphenyl)methyl]-4-(tetrahydro-2H-pyran-4-ylamino)-1H-pyrazolol[3,4-b]pyridine-5-carboxamide]	0.1 to 6.31
CCn1ncc2c(NC3CCOCC3)c(C(=O)NCc3ccc(C(C)C)cc3)cnc21 [Example 551, 1-Ethyl-N-{[4-(1-methylethyl)phenyl]methyl)-4-(tetrahydro-2H-pyran-4-ylamino)-1H-pyrazolo[3,4-b]pyridine-5-carboxamide]	0.1 to 6.31
CCc1cc(CC)cc(CNC(=O)c2cnc3c(cnn3CC)c2NC2CCOCC2)c1 [Example 575, N-[(3,5-Diethylphenyl)methyl]-1-ethyl-4-(tetrahydro-2H-pyran-4-ylamino)-1H-pyrazolo[3,4-b]pyridine-5-carboxamide]	0.1 to 6.31
CCn1ncc2c(NC3CCOCC3)c(C(=O)NCc3cc(Cl)cc(Cl)c3)cnc21 [Example 581, N-[(3,5-Dichlorophenyl)methyl]-1-ethyl-4-(tetrahydro-2H-pyran-4-ylamino)-1H-pyrazolo[3,4-b]pyridine-5-carboxamide]	0.1 to 6.31
CCn1ncc2c(NC3CCOCC3)c(C(=O)NCc3ccc(C)cc3C)cnc21 [Example 584, N-[(2,4-Dimethylphenyl)methyl]-1-ethyl-4-(tetrahydro-2H-pyran-4-ylamino)-1H-pyrazolo[3,4-b]pyridine-5-carboxamide]	0.1 to 6.31
CCn1ncc2c(NC3CCOCC3)c(C(=O)NCc3ccccn3)cnc21 [Example 600, 1-Ethyl-N-(2-pyridinylmethyl)-4-(tetrahydro-2H-pyran-4-ylamino)-1H-pyrazolo[3,4-b]pyridine-5-carboxamide]	12.6 to 100
CCc1ccccc1CNC(=O)c1cnc2c(cnn2CC)c1NC1CCOCC1 [Example 619, 1-Ethyl-N-[(2-ethylphenyl)methyl]-4-(tetrahydro-2H-pyran-4-ylamino)-1H-pyrazolo[3,4-b]pyridine-5-carboxamide]	0.1 to 6.31
CCn1ncc2c(NC3CCOCC3)c(C(=O)NCc3ccc(Cl)cc3F)cnc21 [Example 622, N-[(4-Chloro-2-fluorophenyl)methyl]-1-ethyl-4-(tetrahydro-2H-pyran-4-ylamino)-IH-pyrazolo[3,4-b]pyridine-5-carboxamide]	0.1 to 6.31
CCn1ncc2c(NC3CCOCC3)c(C(=O)NCc3cc(C)cc(C)c3)cnc21 [Example 624, N-[(3,5-Dimethylphenyl)methyl]-1-ethyl-4-(tetrahydro-2H-pyran-4-ylamino)-1H-pyrazolo[3,4-b]pyridine-5-carboxamide]	0.1 to 6.31
CCn1ncc2c(NC3CCOCC3)c(C(=O)NCc3cccc(C)c3C)cnc21 [Example 625, N-[(2,3-Dimethylphenyl)methyl]-1-ethyl-4-(tetrahydro-2H-pyran-4-ylamino)-1H-pyrazolo[3,4-b]pyridine-5-carboxamide]	0.1 to 6.31
CCn1ncc2c(NC3CCOCC3)c(C(=O)NCc3cccc(Cl)c3Cl)cnc21 [Example 626, N-[(2,3-Dichlorophenyl)methyl]-1-ethyl-4-(tetrahydro-2H-pyran-4-ylamino)-1H-pyrazolo[3,4-b]pyridine-5-carboxamide]	0.1 to 6.31
CCn1ncc2c(NC3CCOCC3)c(C(=O)NCc3ccc(Br)cc3)cnc21 [Example 628, N-[(4-Bromophenyl)methyl]-1-ethyl-4-(tetrahydro-2H-pyran-4-ylamino)-1H-pyrazolo[3,4-b]pyridine-5-carboxamide]	0.1 to 6.31
CCn1ncc2c(NC3CCOCC3)c(C(=O)NCc3ccc(I)cc3)cnc21 [Example 630]	0.1 to 6.31
CCc1ccc(CNC(=O)c2cnc3c(cnn3CC)c2NC2CCOCC2)cc1 [Example 636, 1-Ethyl-N-[(4-ethylphenyl)methyl]-4-(tetrahydro-2H-pyran-4-ylamino)-1H-pyrazolo[3,4-b]pyridine-5-carboxamide]	0.1 to 6.31
CCn1ncc2c(NC3CCOCC3)c(C(=O)NCc3ccccc3I)cnc21 [Example 638, 1-Ethyl-N-[(2-iodophenyl)methyl]-4-(tetrahydro-2H-pyran-4-ylamino)-1H-pyrazolo[3,4-b]pyridine-5-carboxamide]	0.1 to 6.31
CCn1ncc2c(NC3CCOCC3)c(C(=O)NCc3c(CO)ccc(Cl)c3Cl)cnc21 [Example 643, N-{[2,3-Dichloro-6-(hydroxymethyl)phenyl]methyl}-1-ethyl-4-(tetrahydro-2H-pyran-4-ylamino)-1H-pyrazolo[3,4-b]pyridine-5-carboxamide]	0.1 to 6.31
CCn1ncc2c(NC3CCOCC3)c(C(=O)NCc3c(C)cc(Cl)cc3Cl)cnc21 [Example 644, N-[(2,4-Dichloro-6-methylphenyl)methyl]-1-ethyl-4-(tetrahydro-2H-pyran-4-ylamino)-1H-pyrazolo[3,4-b]pyridine-5-carboxamide]	0.1 to 6.31
CCn1ncc2c(NC3CCOCC3)c(C(=O)NCc3ccc(CC(C)C)cc3)cnc21 [Example 645, 1-Ethyl-N-{[4-(2-methylpropyl)phenyl]methyl}-4-(tetrahydro-2H-pyran-4-ylamino)-1H-pyrazolo[3,4-b]pyridine-5-carboxamide]	0.1 to 6.31
CCn1ncc2c(NC3CCC(=NO)CC3)c(C(=O)NCc3ccc(OC)cc3)cnc21 (centres unmarked) [Example 653, 1-Ethyl-4-{[4-(hydroxyimino)cyclohexyl]amino}-N-{[4-(methyloxy)phenyl]methyl}-1H-pyrazolo[3,4-b]pyridine-5-carboxamide]	0.1 to 6.31
